Laboratory results as given in paper PMC7505474, “Toll-like receptor 4-mediated inflammation triggered by extracellular IFI16 is enhanced by lipopolysaccharide binding” (PLoS Pathogens, 2020).
“Also recorded” adds a separate entry of the source. Read-outs that look alike come from different tables or passages of the source.

Tests used:
PYRIN = molecular target: T1, PYRIN (Homo sapiens, UniProt Q16666); assay: Saturation binding ELISA, PYRIN domain on immobilized LPS variants / lipid A
T1 construct: the N-terminal portion containing the pyrin domain (PYRIN); made in house; host or cells: bacteria (pET30a vector)
T1 sequence (Q16666 1-88 limits assumed): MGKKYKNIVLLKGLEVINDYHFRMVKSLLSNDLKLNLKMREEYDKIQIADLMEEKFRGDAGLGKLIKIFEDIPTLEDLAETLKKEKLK
Experimental: (§1) For saturation binding experiments, microtiter plates (Nunc-Immuno MaxiSorp, Thermo Fischer Scientific) were coated with 2 μg/ml of recombinant IFI16 or 10 μg/ml of BSA or GST in 1X PBS O/N at 4°C. After a washing step with 1X PBS and 0.25% Tween 20 (v/v, Sigma-Aldrich) and blocking step with 1X PBS with 3% BSA and 0.05% Tween 20 for 1 h, increasing concentrations of biotin-labeled LPS-EB, preincubated with 10 μg/ml of polymyxin B (PMB) when specified, were added to the wells and incubated for 1 h at room temperature (RT). Bound proteins were then detected using HRP-conjugated streptavidin. TMB solution (Thermo Fischer Scientific) was used for color development, and OD was measured at 450 nm. Alternatively, microtiter plates were coated with 10 μg/ml of LPS-EB, LPS-PG, LPS-RS, LPS-F583, MPLA, DPLA, or detoxLPS in 1X PBS for 24 h at RT. After washing and blocking for 2 h, increasing concentrations of IFI16, PYRIN, HINA, or HINB were added to the wells, preincubated with 10 μg/ml of PMB when specified, for 2 h. Anti-IFI16 antibodies against the N- or the C-terminus of the protein and HRP-labeled anti-rabbit IgG were then added as primary and secondary antibodies, respectively. The binding was detected as described above.
(§2) For competitive ELISA, microtiter plates were coated with 1 μg/ml LPS-EB in 1X PBS O/N at RT. Successively, a constant amount of 2 μg/ml IFI16 was added to the wells in the presence of increasing concentration of LPS-EB, MPLA or detoxLPS. After incubation for 4 h at RT under gentle agitation, plates were incubated with an anti-IFI16 N-terminal primary antibody and an HRP-conjugated anti-rabbit IgG secondary antibody. The binding was detected as described above. To determine KD constants, saturation binding experiments were performed, and data were fitted to the Langmuir isotherm equation, which describes the equilibrium binding of the ligands. Data are reported as sigmoid concentration-response curves plotted against log concentrations.

IFI16 [1] = molecular target: T2, IFI16 (Homo sapiens, UniProt Q16666); assay: Saturation binding ELISA, full-length IFI16 on immobilized LPS variants / lipid A
T2 construct: obtained with the full-length recombinant IFI16 protein; made in house
T2 sequence (Q16666 1-729 isoform Q16666-2): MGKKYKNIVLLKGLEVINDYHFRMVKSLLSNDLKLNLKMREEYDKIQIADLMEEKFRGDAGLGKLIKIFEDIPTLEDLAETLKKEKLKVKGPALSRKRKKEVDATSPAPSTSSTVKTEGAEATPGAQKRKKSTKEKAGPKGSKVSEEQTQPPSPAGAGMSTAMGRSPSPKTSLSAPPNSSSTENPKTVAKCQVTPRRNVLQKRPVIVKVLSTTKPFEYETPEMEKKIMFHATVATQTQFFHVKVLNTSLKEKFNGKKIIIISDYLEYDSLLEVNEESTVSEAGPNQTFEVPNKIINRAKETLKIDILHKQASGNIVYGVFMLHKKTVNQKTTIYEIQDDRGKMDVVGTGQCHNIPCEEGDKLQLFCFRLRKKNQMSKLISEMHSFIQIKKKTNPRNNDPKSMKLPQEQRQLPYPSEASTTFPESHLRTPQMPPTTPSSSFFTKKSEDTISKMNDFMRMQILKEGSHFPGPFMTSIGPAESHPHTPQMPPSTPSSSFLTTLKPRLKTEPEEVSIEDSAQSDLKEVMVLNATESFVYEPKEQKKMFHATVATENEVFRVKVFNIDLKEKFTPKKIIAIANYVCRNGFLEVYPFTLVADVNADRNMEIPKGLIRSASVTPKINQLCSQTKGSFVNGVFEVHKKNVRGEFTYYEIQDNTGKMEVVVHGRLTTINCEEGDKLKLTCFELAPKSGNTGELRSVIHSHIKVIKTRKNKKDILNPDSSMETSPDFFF
Experimental: as §1, §2

HINA = molecular target: T3, HINA (Homo sapiens, UniProt Q16666); assay: Saturation binding ELISA, HINA domain on immobilized LPS variants / lipid A
T3 construct: each of the 200 amino acid-long HIN domains (namely HINA or HINB); made in house; host or cells: bacteria (pET30a vector)
T3 sequence (Q16666 189-389 limits assumed): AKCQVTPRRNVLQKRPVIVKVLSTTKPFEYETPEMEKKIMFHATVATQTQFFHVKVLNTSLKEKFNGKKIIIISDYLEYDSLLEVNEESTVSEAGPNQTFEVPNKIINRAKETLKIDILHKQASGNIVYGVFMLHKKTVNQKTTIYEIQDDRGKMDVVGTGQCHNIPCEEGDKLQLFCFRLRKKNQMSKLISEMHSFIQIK
Experimental: as §1, §2

HINB = molecular target: T4, HINB (Homo sapiens, UniProt Q16666); assay: Saturation binding ELISA, HINB domain on immobilized LPS variants / lipid A
T4 construct: each of the 200 amino acid-long HIN domains (namely HINA or HINB); made in house; host or cells: bacteria (pET30a vector)
T4 sequence (Q16666 562-761 limits assumed): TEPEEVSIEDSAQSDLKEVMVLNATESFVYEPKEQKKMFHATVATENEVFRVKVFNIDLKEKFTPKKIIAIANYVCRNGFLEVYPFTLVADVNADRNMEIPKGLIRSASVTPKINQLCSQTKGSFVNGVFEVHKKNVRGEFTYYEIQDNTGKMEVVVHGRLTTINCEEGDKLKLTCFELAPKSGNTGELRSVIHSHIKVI
Experimental: as §1, §2

IFI16 [2] = molecular target: T2, IFI16; assay: Competition ELISA for IFI16 binding to immobilized LPS-EB; conditions: 1 μg/ml LPS-EB coated; 2 μg/ml IFI16; competitor 5 to 25 μg/ml
Experimental: as §2

IFI16 [3] = molecular target: T2, IFI16; assay: SPR, LPS-EB over CM5 IFI16-coated chip; format: binding; conditions: LPS-EB 3.125–100 nM over immobilized IFI16
Experimental: Recombinant IFI16 was covalently immobilized onto the surface of sensor CM5 chips via amine coupling as done for TLR4 and TLR4/MD2 complex. IFI16 was diluted to a concentration of 25 μg/ml in 10 mM sodium acetate at pH 4.0. The target capture level of IFI16 was of 1,926.6 response units (RUs). Increasing concentrations of LPS-EB, diluted in HBS-EP+ buffer, were flowed over the CM5 sensor chip coated with IFI16 at a flow rate of 30 μl/min at 25°C with an association time of 180 s and a dissociation phase of 600 s. A single regeneration step with 50 mM NaOH was performed following each analytic cycle. The KDs were evaluated using the BIAcore evaluation software (GE Healthcare) and the reliability of the kinetic constants calculated by assuming a 1:1 binding model supported by the quality assessment indicators values.

TLR4/MD2 receptor = molecular target: T5, TLR4/MD2 receptor (Homo sapiens, UniProt O00206+Q9Y6Y9); assay: SPR, analytes over immobilized TLR4/MD2; format: binding
T5 construct: purchased R&D Systems 3146-TM-050/CF
Experimental: The Biacore X100 (GE Healthcare) instrument was used for real-time binding interaction experiments. Recombinant TLR4 or TLR4/MD2 complex was covalently immobilized onto the surface of sensor CM5 (cat # BR100012, GE Healthcare) chips via amine coupling. TLR4 was diluted to a concentration of 10 μg/ml in 10 mM sodium acetate at pH 4.0, while TLR4/MD2 complex was diluted to a concentration of 20 μg/ml in the same buffer. Both proteins were injected on CM5 chips at a flow rate of 10 μl/min, upon activation of the carboxyl groups on the sensor surface with 7-min injection of a mixture of 0.2 M EDC and 0.05 M NHS. The remaining esters were blocked with 7-min injection of ethanolamine. Taking into account the ligands (TLR4 or TLR4/MD2) and analytes (IFI16, LPS-EB or IFI16/LPS-EB) molecular weights (MW) of 70 or 90 kDa, and 90, 10 or 100 kDa respectively, the appropriate ligand density (RL) on the chip was calculated according to the following equation: RL = (ligand MW/analyte MW) × Rmax × (1/Sm), where Rmax is the maximum binding signal and Sm corresponds to the binding stoichiometry. The target capture level of the TLR4 or TLR4/MD2 was of 596.0 or 1,223.9 response units (RUs), respectively. […] Increasing concentrations of endotoxin-free IFI16, LPS-EB or IFI16/LPS-EB complex were flowed over the CM5 sensor chip coated with TLR4 or TLR4/MD2 at a flow rate of 30 μl/min at 25°C with an association time of 120 s for IFI16 alone and the IFI16/LPS-EB complex, and 180 s for LPS-EB, and a dissociation phase of 180 s for IFI16 and IFI16/LPS-EB complex or 600 s for LPS-EB. A single regeneration step with 50 mM NaOH was performed following each analytic cycle. All the analytes tested were diluted in the HBS-EP+ buffer (GE Healthcare). […]

IFI16 [4] = molecular target: T2, IFI16; assay: Saturation binding ELISA, IFI16-coated plates challenged with biotin-LPS-EB
Experimental: as §1

[5] = 10 μg/ml immobilized LPS variant or lipid A; increasing PYRIN domain; read-out: Equilibrium dissociation constant (KD), PYRIN
[6] = 10 μg/ml immobilized LPS variant or lipid A; increasing full-length IFI16; ELISA 450 nm; read-out: Equilibrium dissociation constant (KD), IFI16
[7] = 10 μg/ml immobilized LPS variant or lipid A; increasing HINA domain; read-out: Equilibrium dissociation constant (KD), HINA
[8] = 10 μg/ml immobilized LPS variant or lipid A; increasing HINB domain; read-out: Equilibrium dissociation constant (KD), HINB

T5 sequence (O00206 24-631 limits assumed): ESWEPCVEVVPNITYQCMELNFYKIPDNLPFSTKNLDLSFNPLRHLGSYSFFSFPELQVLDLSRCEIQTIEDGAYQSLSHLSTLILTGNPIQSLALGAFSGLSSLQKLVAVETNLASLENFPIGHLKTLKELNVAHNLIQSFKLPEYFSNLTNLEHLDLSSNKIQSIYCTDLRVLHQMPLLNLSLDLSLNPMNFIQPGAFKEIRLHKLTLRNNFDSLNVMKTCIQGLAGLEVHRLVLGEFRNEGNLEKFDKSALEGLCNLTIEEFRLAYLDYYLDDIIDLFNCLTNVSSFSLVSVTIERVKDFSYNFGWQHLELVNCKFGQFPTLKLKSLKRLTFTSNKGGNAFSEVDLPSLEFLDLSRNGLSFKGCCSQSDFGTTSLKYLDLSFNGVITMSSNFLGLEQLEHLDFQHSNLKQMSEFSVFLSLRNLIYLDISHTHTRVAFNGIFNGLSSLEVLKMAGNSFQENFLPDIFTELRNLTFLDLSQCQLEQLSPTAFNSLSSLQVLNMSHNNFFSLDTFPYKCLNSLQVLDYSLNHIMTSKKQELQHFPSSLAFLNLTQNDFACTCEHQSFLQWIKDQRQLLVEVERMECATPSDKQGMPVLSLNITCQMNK
T5 sequence (Q9Y6Y9 17-160 limits assumed): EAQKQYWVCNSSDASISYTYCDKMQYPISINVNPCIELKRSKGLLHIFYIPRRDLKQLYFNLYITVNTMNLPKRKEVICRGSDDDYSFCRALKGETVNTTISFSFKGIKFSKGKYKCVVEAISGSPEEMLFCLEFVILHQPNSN

Row | Compound | Kd (PYRIN; [5]) [nM] | Kd (IFI16 [1]; [6]) [nM] | Kd (HINA; [7]) [nM] | Competition for IFI16 binding to immobilized LPS-EB (IFI16 [2]) | Kd (HINB; [8]) [nM] | other results
1 | CCCCCCCCCCCCCC(=O)O[C@H](CCCCCCCCCCC)CC(=O)O[C@@H]1[C@@H](NC(=O)C[C@@H](CCCCCCCCCCC)OC(=O)CCCCCCCCCCC)[C@H](OC[C@H]2O[C@H](OP(=O)(O)O)[C@H](NC(=O)C[C@H](O)CCCCCCCCCCC)[C@@H](OC(=O)C[C@H](O)CCCCCCCCCCC)[C@@H]2O)O[C@H](CO)[C@H]1OP(=O)(O)O [DPLA, diphosphoryl lipid A from Escherichia coli F583] | – | – | – | – | – | Kd (PYRIN; read-out: Equilibrium dissociation constant (KD), PYRIN; 10 μg/ml immobilized LPS variant or lipid A; increasing PYRIN domain): 47.5 nM; Kd (IFI16 [1]; read-out: Equilibrium dissociation constant (KD), IFI16; 10 μg/ml immobilized LPS variant or lipid A; increasing full-length IFI16; ELISA 450 nm): 0.9 nM; Kd (HINA; read-out: Equilibrium dissociation constant (KD), HINA; 10 μg/ml immobilized LPS variant or lipid A; increasing HINA domain): 67.7 nM; Kd (HINB; read-out: Equilibrium dissociation constant (KD), HINB; 10 μg/ml immobilized LPS variant or lipid A; increasing HINB domain): 2.8 nM
2 | CCCCCCCCCCCCCC(=O)O[C@H](CCCCCCCCCCC)CC(=O)O[C@@H]1[C@@H](NC(=O)C[C@@H](CCCCCCCCCCC)OC(=O)CCCCCCCCCCC)[C@H](OC[C@H]2OC(O)[C@H](NC(=O)C[C@H](O)CCCCCCCCCCC)[C@@H](OC(=O)C[C@H](O)CCCCCCCCCCC)[C@@H]2O)O[C@H](CO)[C@H]1OP(=O)(O)O (some centres unmarked) [MPLA, monophosphoryl lipid A from Escherichia coli F583] | 47.2 | 1.2 | 94.1 | much stronger reduction in IFI16 binding to LPS | 2.7 | –
3 | LPS from Escherichia coli F583 [LPS-F583] | – | 4.3 | – | – | – | –
4 | LPS from Escherichia coli O111:B4 [LPS-EB] | 116 | 4.2 | 85.3 | reduced IFI16 binding to immobilized LPS in a concentration-dependent manner | 3.3 | kinetic association constant (Ka) (IFI16 [3]): 11300 M⁻¹ s⁻¹; kinetic dissociation constant (Kd) (IFI16 [3]; rate constant): 0.00194 s⁻¹; dissociation rate constant (Kd) (TLR4/MD2 receptor): 1e-06 s⁻¹; Ka (TLR4/MD2 receptor; association rate constant): 6840 M⁻¹ s⁻¹; dissociation rate constant (koff) (TLR4/MD2 receptor; dissociation rate constant): 1e-06 s⁻¹; Kd (TLR4/MD2 receptor; equilibrium dissociation constant, read-out: KD): 0.147 nM; Rmax (TLR4/MD2 receptor; maximum response): 745.00 RU; Kd (TLR4/MD2 receptor; text / Fig 8C legend, read-out: equilibrium dissociation constant (KD)): 0.15 nM
5 | LPS from Porphyromonas gingivalis [LPS-PG] | 46.9 | 12 | 84 | – | 1.6 | –
6 | LPS from Rhodobacter sphaeroides [LPS-RS] | – | 19.3 | – | – | – | –
7 | biotin-labeled LPS from Escherichia coli O111:B4 [biotin-LPS-EB] | – | – | – | – | – | biotin-LPS-EB concentration reaching saturation of solid-phase IFI16 (IFI16 [4]; 2 μg/ml IFI16 coated): 100,000 ng/ml
8 | detoxified LPS from Escherichia coli O111:B4 [detoxLPS] | – | – | – | did not interfere | – | –
9 | polymyxin B [PMB] | – | – | – | – | – | Effect of PMB pre-treatment of immobilized LPS / lipid A on IFI16 binding (IFI16 [1]; 10 μg/ml PMB): completely abolished IFI16 binding; also recorded: no signal was detected; Effect of PMB pre-incubated with biotin-LPS-EB on IFI16/LPS binding (IFI16 [4]; 10 μg/ml PMB, IFI16-coated wells): completely prevented IFI16 from binding to LPS
